Assay results reported in ChEMBL document CHEMBL1146800, “Structure-based design of amidinophenylurea-derivatives for factor VIIa inhibition” (Bioorg Med Chem Lett, 2004).

Experiments:
Coagulation factor X = Coagulation factor X (Homo sapiens, UniProt P00742); assay: In vitro inhibition of coagulation factor X
Coagulation factor VII = target: T1, Coagulation factor VII (Homo sapiens, UniProt P08709); assay: In vitro inhibition of human coagulation factor VIIa
T1 sequence (P08709 whole entry): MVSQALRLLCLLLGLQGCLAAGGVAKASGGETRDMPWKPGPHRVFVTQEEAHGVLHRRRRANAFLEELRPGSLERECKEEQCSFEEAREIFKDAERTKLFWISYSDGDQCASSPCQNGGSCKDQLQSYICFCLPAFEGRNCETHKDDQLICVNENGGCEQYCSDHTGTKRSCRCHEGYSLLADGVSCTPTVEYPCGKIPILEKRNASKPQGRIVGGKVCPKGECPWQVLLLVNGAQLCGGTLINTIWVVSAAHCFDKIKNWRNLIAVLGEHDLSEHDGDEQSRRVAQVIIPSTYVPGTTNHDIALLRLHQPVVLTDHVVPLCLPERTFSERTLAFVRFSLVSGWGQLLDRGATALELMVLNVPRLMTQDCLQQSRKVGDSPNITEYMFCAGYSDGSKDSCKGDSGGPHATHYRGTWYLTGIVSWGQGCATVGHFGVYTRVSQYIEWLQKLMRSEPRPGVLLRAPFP

Prothrombin = Prothrombin (Homo sapiens, UniProt P00734); assay: In vitro inhibition of thrombin

Chain of Coagulation factor X (P00742 41-179 limits assumed): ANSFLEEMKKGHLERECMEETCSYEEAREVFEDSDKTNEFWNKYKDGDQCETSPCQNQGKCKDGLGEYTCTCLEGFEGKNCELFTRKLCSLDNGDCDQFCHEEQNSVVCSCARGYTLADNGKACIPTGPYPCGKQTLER
Chain of Coagulation factor X (P00742 235-488 limits assumed): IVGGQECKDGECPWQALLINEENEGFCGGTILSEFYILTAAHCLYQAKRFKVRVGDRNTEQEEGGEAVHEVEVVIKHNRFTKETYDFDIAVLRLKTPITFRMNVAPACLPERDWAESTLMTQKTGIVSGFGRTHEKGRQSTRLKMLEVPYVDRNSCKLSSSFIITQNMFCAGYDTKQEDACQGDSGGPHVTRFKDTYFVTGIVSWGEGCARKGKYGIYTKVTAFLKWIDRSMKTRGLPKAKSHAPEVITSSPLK

Ki (Coagulation factor X) | Ki (Coagulation factor VII) | Ki (Prothrombin) | SMILES
> 10 µM | 0.02 µM | 2.3 µM | COc1cccc(COc2ccc(C(C)NC(=O)CNC(=O)Nc3ccc(C(=N)N)cc3)cc2)c1 (stereo not given)
> 10 µM | 0.078 µM | 9.1 µM | CC(NC(=O)CNC(=O)Nc1ccc(C(=N)N)cc1)c1ccc(Oc2ccccc2)cc1 (stereo not given)
> 10 µM | 0.03 µM | 1.9 µM | CC(NC(=O)CNC(=O)Nc1ccc(C(=N)N)cc1)c1ccc(N2CCOCC2)c(C(F)(F)F)c1 (stereo not given)
 | 0.077 µM |  | CC(NC(=O)CNC(=O)Nc1ccc(C(=N)N)cc1)c1ccc(Cl)c(Cl)c1 (stereo not given)
4.6 µM | 0.034 µM | 14.8 µM | CC(NC(=O)CNC(=O)Nc1ccc(C(=N)N)cc1)c1ccc(NC(=O)c2ccccc2)cc1 (stereo not given)
6.23 µM |  | 3.18 µM | C[C@H](NC(=O)CNC(=O)Nc1ccc(C(=N)N)cc1)c1ccc2ccccc2c1
> 10 µM |  | 33.2 µM | CC(NC(=O)CNC(=O)Nc1ccc(C(=N)N)cc1)c1ccc(NC(=O)c2cccc(Oc3ccccc3)c2)cc1 (stereo not given)
10.7 µM |  | 9.8 µM | COc1ccc(Oc2ccc(C(C)NC(=O)CNC(=O)Nc3ccc(C(=N)N)cc3)cc2)cc1 (stereo not given)
> 10 µM |  | 68.5 µM | CC(NC(=O)CNC(=O)Nc1ccc(C(=N)N)cc1)c1ccc(NC(=O)C2CCNCC2)cc1 (stereo not given)
14.5 µM |  |  | N=C(N)c1ccc(NC(=O)NCC(=O)NCc2ccc(Cl)c(Cl)c2)cc1
> 10 µM | 0.043 µM | 11.9 µM | CC(NC(=O)CNC(=O)Nc1ccc(C(=N)N)cc1)c1ccc(C(=O)Nc2cccc(Oc3ccccc3)c2)cc1 (stereo not given)
> 10 µM | 0.047 µM | 14.5 µM | CC(NC(=O)CNC(=O)Nc1ccc(C(=N)N)cc1)c1ccc(NC(=O)C2CC2)cc1 (stereo not given)
 | 0.133 µM |  | CC(NC(=O)CNC(=O)Nc1ccc(C(=N)N)cc1)c1ccc(OCc2ccccc2)cc1 (stereo not given)
> 10 µM | 0.023 µM | 2.3 µM | CC(NC(=O)CNC(=O)Nc1ccc(C(=N)N)cc1)c1ccc(OCc2cccc(Cl)c2)cc1 (stereo not given)
> 10 µM | 0.02 µM | 12.1 µM | CC(NC(=O)CNC(=O)Nc1ccc(C(=N)N)cc1)c1ccc(C(=O)Nc2ccccc2)cc1 (stereo not given)
 | 0.256 µM |  | CC(NC(=O)CNC(=O)Nc1ccc(C(=N)N)cc1)c1cccc(OCc2ccccc2)c1 (stereo not given)
> 10 µM | 0.196 µM | > 50 µM | CC(=O)Nc1ccc(C(C)NC(=O)CNC(=O)Nc2ccc(C(=N)N)cc2)cc1 (stereo not given)
> 10 µM | 0.015 µM | 0.65 µM | CC(NC(=O)CNC(=O)Nc1ccc(C(=N)N)cc1)c1ccc(N2CCOCC2)c(Br)c1 (stereo not given)
> 10 µM |  | 0.5 µM | COC(=O)c1cc(C(C)NC(=O)CNC(=O)Nc2ccc(C(=N)N)cc2)ccc1OCc1ccccc1 (stereo not given)
 | 0.19 µM |  | CC(NC(=O)CNC(=O)Nc1ccc(C(=N)N)cc1)c1ccc(Cc2ccccc2)cc1 (stereo not given)
 | 7 µM |  | C[C@@H](NC(=O)CNC(=O)Nc1ccc(C(=N)N)cc1)c1ccc2ccccc2c1
> 10 µM | 0.026 µM | 10.9 µM | Cc1cccc(C(=O)Nc2ccc(C(C)NC(=O)CNC(=O)Nc3ccc(C(=N)N)cc3)cc2)c1 (stereo not given)
> 10 µM | 0.156 µM | 6.76 µM | C[C@H](NC(=O)CNC(=O)Nc1ccc(C(=N)N)cc1)c1ccc(Br)cc1
> 10 µM | 0.142 µM | 3.2 µM | CC(NC(=O)CNC(=O)Nc1ccc(C(=N)N)cc1)c1ccc(N2CCOCC2)cc1 (stereo not given)
